Test results reported in paper PMC4263135, “A general strategy for developing cell-permeable photo-modulatable organic fluorescent probes for live-cell super-resolution imaging” (Nature Communications, 2014).
Where a SMILES comes first, the peptide text is derived from it. Side-chain parts run from the residue outwards. [ ]: non-standard residue; d: D form. The star is where a group is joined. FITC = O=C1OC2(c3ccc(O)cc3Oc3cc(O)ccc32)c2ccc(NC(=S)*)cc21; Ahx = NCCCCCC(=O)O

Tests used:
F-actin = conditions: cited from earlier work
From the text: The non-fluorescent PA-RhB fluorophore has been reported to be switched on by ultraviolet light, to be thermally reverted to a dark state, and to be excited by 560-nm laser light, emitting optimally at 600 nm in fixed cells. However, it is unknown whether the live-cell environment changes the properties of PA-RhB and whether the PA-RhB fluorophore can be used for live-cell super-resolution imaging.

live BSC-1 cells = assay: Intracellular distribution of probes by confocal microscopy (Trypan blue quench); format: cell-based, African green monkey (Cercopithecus aethiops); conditions: 37 °C
Procedure: For F-actin imaging, BSC-1 cells were seeded into cell culture dishes at a density of 1.5 × 10^4 per well in growth medium (MEM supplemented with 10% FBS, 200 μl). After an overnight incubation, the cells were washed with phosphate-buffered saline (PBS, pH 7.4) for three times. A solution of the indicated probe (15 μM, 200 μl) in PBS was then added, and the cells were incubated in a 5% CO2 atmosphere at 37 °C for the indicated (5, 10, 15 and 30 min) times as mentioned in the main text. The supernatant was then discarded, and a solution of Trypan blue (200 μl, 1 mg ml^−1) in PBS was added to quench the extracellular fluorescence of the probes that were bound to either the cell membrane or the dish surface. After 2 min, Trypan blue was removed, the cells were washed gently twice with PBS and immersed in growth medium prior to optical imaging.
The fluorescence signals were detected using a Fluoview FV1000 confocal laser scanning microscope (Olympus) equipped with a × 60/1.42 numerical aperture oil-immersion objective lens (FITC channel: excitation (EX) 488 nm, emission (EM) 510–530 nm; GFP channel: EX 488 nm, EM 508–532 nm; tdEosFP channel: EX 488 nm, EM 500–522 nm; RhB channel: EX 543 nm, EM 580–630 nm; FAM channel: EX 488 nm, EM 505–540 nm and LysoTracker Red channel: excitation (EX) 543 nm, emission (EM) 560–580 nm). All fluorescence images were analyzed with Image J software.

Compound	affinity for F-actin in live cells (F-actin)	intracellular distribution (live BSC-1 cells; 15 μM in PBS, 5 to 30 min, confocal fluorescence)	time to enter the live cells efficiently (live BSC-1 cells; cell uptake, probe 15 μM in PBS, Trypan blue quench of extracellular fluorescence)
MGVADLIKKFESISKEE [Lifeact]	low affinity	–	–
CC[C@H](C)[C@H](NC(=O)[C@H](CC(C)C)NC(=O)[C@H](CC(=O)O)NC(=O)[C@H](C)NC(=O)[C@@H](NC(=O)CNC(=O)[C@@H](N)CCSC)C(C)C)C(=O)N[C@@H](CCCCN)C(=O)N[C@@H](CCCCN)C(=O)N[C@@H](Cc1ccccc1)C(=O)N[C@@H](CCC(=O)O)C(=O)N[C@@H](CO)C(=O)N[C@H](C(=O)N[C@@H](CO)C(=O)N[C@@H](CCCCN)C(=O)N[C@@H](CCC(=O)O)C(=O)N[C@@H](CCC(=O)O)C(=O)NCC(=O)NCC(=O)NCC(=O)NCC(=O)N[C@@H](CCCCNC(=O)CCCCCNC(=S)Nc1ccc2c(c1)C(=O)OC21c2ccc(O)cc2Oc2cc(O)ccc21)C(=O)NCC(=O)NCC(=O)N[C@H](CCCNC(=N)N)C(=O)N[C@@H](CCCNC(=N)N)C(=O)N[C@H](CCCNC(=N)N)C(=O)N[C@@H](CCCNC(=N)N)C(=O)N[C@H](CCCNC(=N)N)C(=O)N[C@@H](CCCNC(=N)N)C(=O)N[C@@H](CCCNC(=N)N)C(=O)N[C@@H](CCCNC(=N)N)C(=O)O)[C@@H](C)CC [probe 1] (H-MGVADLIKKFESISKEEGGGGK([Ahx-FITC])GG[dR]R[dR]R[dR]RRR-OH)	–	diffuse localization throughout the cytoplasm	≤ 5 min
